This note sets out measurements from ChEMBL document CHEMBL1134136, “Novel piperidinyloxy oxazolidinone antimicrobial agents” (2001).

In brackets after ≈: the same amount, converted by molar mass.

One may read the MIC as the least concentration at which growth counts as inhibited.

Type in all cases: functional
Experiment [1] relates to Enterococcus faecium. Description: Antibacterial activity against vancomycin - resistant Enterococcus faecium (OC 3312 VRE).
The next experiment has as its system Enterococcus faecalis. Kind of experiment: Antibacterial activity against Enterococcus faecalis (ATCC 29212).
Experiment [2] has as its system Escherichia coli. Kind of experiment: Antibacterial activity against Escherichia coli (OC 2530) (HS).
Experiment [3] concerns Escherichia coli. Description: Antibacterial activity against Escherichia coli (OC 2605).
Experiment [4] relates to Staphylococcus aureus. Kind of experiment: Antibacterial activity against methicillin susceptible Staphylococcus aureus (OC 4172) in broth (without serum).
Experiment [5] concerns Staphylococcus aureus. Kind of experiment: Antibacterial activity against methicillin susceptible Staphylococcus aureus (OC 4172) in presence of 50% mouse serum.
Experiment [6] relates to Staphylococcus aureus. Description: Antibacterial activity against methicillin - resistant Staphylococcus aureus (MRSA OC2878).
Experiment [7] has as its system Enterococcus faecium. Kind of experiment: Minimum inhibitory concentration against vancomycin - resistant Enterococcus faecium (OC 3312 VRE).
Experiment [8] has as its system Staphylococcus aureus. Kind of experiment: Antibacterial activity towards methicillin - resistant Staphylococcus aureus (MRSA OC2878).

As to `CC(=O)NC[C@H]1CN(c2ccc(OC3CCN(C(=O)COCc4ccccc4)C3)c(F)c2)C(=O)O1` (stereo partly drawn), the MIC against Enterococcus faecium [1] was 16 mg/L (≈ 33 µM); in the experiment on Enterococcus faecalis, 16 mg/L (≈ 33 µM); against Escherichia coli [2] it was more than 128 mg/L; in the experiment with Escherichia coli [3], more than 128 mg/L; in the experiment with Staphylococcus aureus [4] it was 16 mg/L (≈ 33 µM); in the experiment with Staphylococcus aureus [5] it was 16 mg/L. The compound further gave an MIC in the experiment on Staphylococcus aureus [6] of 16 mg/L (≈ 33 µM).
On to `CC(=O)NC[C@H]1CN(c2ccc(OC3CCN(C(=O)COCc4ccccc4)CC3)cc2)C(=O)O1`, for which the MIC in the experiment on Enterococcus faecalis was 16 mg/L (≈ 33.2 µM); in the experiment with Escherichia coli [2], 128 mg/L (≈ 266 µM); against Escherichia coli [3], 128 mg/L (≈ 266 µM); against Staphylococcus aureus [4] it was 16 mg/L (≈ 33.2 µM); in the experiment with Staphylococcus aureus [5], 64 mg/L; in the experiment on Staphylococcus aureus [6], 8 mg/L (≈ 16.6 µM). In the experiment with Enterococcus faecium [7], this compound gave an MIC of 16 mg/L (≈ 33.2 µM).
With `CC(=O)NC[C@H]1CN(c2ccc(N3CCOCC3)c(F)c2)C(=O)O1` [LINEZOLID], the minimal inhibitory concentration (MIC) against Enterococcus faecium [1] turned out to be 2 mg/L (≈ 5.93 µM); in the experiment with Escherichia coli [2], 8 mg/L (≈ 23.7 µM); against Escherichia coli [3], 32 mg/L (≈ 94.9 µM).
`CC(=O)NC[C@H]1CN(c2ccc(OC3CCN(C(=O)CO)CC3)c(F)c2)C(=O)O1`: the MIC is 8 mg/L (≈ 19.5 µM) against Enterococcus faecium [1]; 8 mg/L (≈ 19.5 µM) in the experiment with Enterococcus faecalis; 128 mg/L (≈ 313 µM) with Escherichia coli [2]; more than 128 mg/L in the experiment on Escherichia coli [3]; 4 mg/L (≈ 9.77 µM) against Staphylococcus aureus [4]; 4 mg/L in the experiment on Staphylococcus aureus [5]. Also, the minimum inhibitory concentration (MIC) in the experiment with Staphylococcus aureus [6] was 4 mg/L (≈ 9.77 µM).
In the case of `CC(=O)NC[C@H]1CN(c2ccc(OC3CN(C(=O)COCc4ccccc4)C3)c(F)c2)C(=O)O1`, the minimum inhibitory concentration (MIC) was 16 mg/L (≈ 33.9 µM) in the experiment with Enterococcus faecium [1]; 16 mg/L (≈ 33.9 µM) against Enterococcus faecalis; 64 mg/L (≈ 136 µM) with Escherichia coli [2]; more than 128 mg/L in the experiment with Escherichia coli [3]; 8 mg/L (≈ 17 µM) with Staphylococcus aureus [4]; 16 mg/L in the experiment on Staphylococcus aureus [5]. The compound also yielded an MIC with Staphylococcus aureus [6] of 8 mg/L (≈ 17 µM).
Turning to `CC(=O)NC[C@H]1CN(c2ccc(OC3CCN(C(=O)COCc4ccccc4)CC3)c(F)c2)C(=O)O1`, the MIC was 4 mg/L (≈ 8.01 µM) in the experiment on Enterococcus faecium [1]; 4 mg/L (≈ 8.01 µM) in the experiment with Enterococcus faecalis; more than 32 mg/L in the experiment with Escherichia coli [2]; more than 128 mg/L against Escherichia coli [3]; 2 mg/L (≈ 4 µM) against Staphylococcus aureus [8]; 4 mg/L (≈ 8.01 µM) with Staphylococcus aureus [4]. Besides, the MIC in the experiment on Staphylococcus aureus [5] is 16 mg/L.
In the case of `CC(=O)NC[C@H]1CN(c2ccc(OC3CCCN(C(=O)COCc4ccccc4)C3)c(F)c2)C(=O)O1` (stereo partly drawn), the minimum inhibitory concentration (MIC) with Enterococcus faecium [1] is 64 mg/L (≈ 128 µM); in the experiment on Enterococcus faecalis it was 64 mg/L (≈ 128 µM); in the experiment on Escherichia coli [2], more than 64 mg/L; in the experiment on Escherichia coli [3], more than 128 mg/L; in the experiment with Staphylococcus aureus [4] it was 32 mg/L (≈ 64.1 µM); with Staphylococcus aureus [5], 32 mg/L. For the same compound, the lowest concentration to inhibit growth in the experiment with Staphylococcus aureus [6] (MIC) was 32 mg/L (≈ 64.1 µM).
`CC(=O)NC[C@H]1CN(c2ccc(OC3CN(C(=O)CO)C3)c(F)c2)C(=O)O1`: the MIC with Enterococcus faecium [1] was 16 mg/L (≈ 42 µM); in the experiment on Enterococcus faecalis, 16 mg/L (≈ 42 µM); with Escherichia coli [2] it was more than 128 mg/L; in the experiment with Escherichia coli [3], more than 128 mg/L; against Staphylococcus aureus [4], 8 mg/L (≈ 21 µM); in the experiment with Staphylococcus aureus [5], 8 mg/L. In the experiment with Staphylococcus aureus [6], this compound showed an MIC of 8 mg/L (≈ 21 µM).
For the compound `CC(=O)NC[C@H]1CN(c2ccc(OC3CCN(C(=O)CO)CC3)cc2)C(=O)O1`, the MIC is 32 mg/L (≈ 81.8 µM) in the experiment with Enterococcus faecium [1]; 32 mg/L (≈ 81.8 µM) in the experiment with Enterococcus faecalis; more than 128 mg/L against Escherichia coli [2]; more than 128 mg/L against Escherichia coli [3]; 16 mg/L (≈ 40.9 µM) in the experiment with Staphylococcus aureus [4]; 32 mg/L in the experiment with Staphylococcus aureus [5]. The compound also yielded a minimal inhibitory concentration (MIC) against Staphylococcus aureus [6] of 16 mg/L (≈ 40.9 µM).
For the compound `CC(=O)NC[C@H]1CN(c2ccc(OC3CCCN(C(=O)CO)C3)c(F)c2)C(=O)O1` (stereo partly drawn), the minimum inhibitory concentration (MIC) against Enterococcus faecium [1] is 16 mg/L (≈ 39.1 µM); against Enterococcus faecalis, 16 mg/L (≈ 39.1 µM); in the experiment with Escherichia coli [2], 128 mg/L (≈ 313 µM); in the experiment on Escherichia coli [3] it was more than 128 mg/L; in the experiment on Staphylococcus aureus [4], 8 mg/L (≈ 19.5 µM); in the experiment with Staphylococcus aureus [5], 8 mg/L. Further, 8 mg/L (≈ 19.5 µM) was the least that counted as inhibitory in the experiment with Staphylococcus aureus [6] (MIC).
With `CC(=O)NC[C@H]1CN(c2ccc(OC3CCN(C(=O)CO)C3)c(F)c2)C(=O)O1` (stereo partly drawn), the minimal inhibitory concentration (MIC) with Enterococcus faecium [1] stood at 16 mg/L (≈ 40.5 µM); against Enterococcus faecalis, 16 mg/L (≈ 40.5 µM); in the experiment with Escherichia coli [2], 128 mg/L (≈ 324 µM); against Escherichia coli [3] it was 128 mg/L (≈ 324 µM); in the experiment on Staphylococcus aureus [4], 4 mg/L (≈ 10.1 µM); with Staphylococcus aureus [5] it was 4 mg/L. The compound further registered a minimal inhibitory concentration (MIC) with Staphylococcus aureus [6] of 8 mg/L (≈ 20.2 µM).
